We go through 18 molecules from ChEMBL document CHEMBL5150060 (J Med Chem, 2022).

Activity calls are given as the source filed them. No cut-off for these calls is given here. Where only a bound is given, the exact number is not on record here.

The target in data set [1] is T1, Histone deacetylase 2 (Homo sapiens, UniProt Q92769). The experiment in a line: Inhibition of recombinant human HDAC2 using p53 (Ac-RHKK(Acetyl)-AMC) as substrate preincubated for 5 mins followed by substrate addition and measured after 30 mins by fluorescence based analysis.
The next data set has as its target Histone deacetylase 3 (Homo sapiens, UniProt O15379). The experiment in a line: Inhibition of recombinant human HDAC3 using p53 (Ac-RHKK(Acetyl)-AMC) as substrate preincubated for 5 mins followed by substrate addition and measured after 30 mins by fluorescence based analysis.
Another data set concerns the target T2, Histone deacetylase 8 (Homo sapiens, UniProt Q9BY41).
T2 sequence (Q9BY41 whole entry): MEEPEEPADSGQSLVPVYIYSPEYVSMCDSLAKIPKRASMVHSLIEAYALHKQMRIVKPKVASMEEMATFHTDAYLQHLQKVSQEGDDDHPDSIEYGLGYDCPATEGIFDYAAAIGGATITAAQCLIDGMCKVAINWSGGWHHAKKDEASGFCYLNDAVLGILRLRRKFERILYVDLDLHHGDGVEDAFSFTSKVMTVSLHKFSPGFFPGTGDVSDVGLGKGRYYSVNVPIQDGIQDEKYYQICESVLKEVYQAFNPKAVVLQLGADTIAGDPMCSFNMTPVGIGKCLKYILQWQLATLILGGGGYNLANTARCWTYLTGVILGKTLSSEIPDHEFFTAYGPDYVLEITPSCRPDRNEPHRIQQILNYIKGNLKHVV
The experiment in a line: Inhibition of recombinant human HDAC8 using (Abz-SRGK(thio-TFA)FFRR-NH2) as substrate preincubated for 5 mins followed by substrate addition by fluorescence based analysis.

In data set [2] the target is T3, Histone deacetylase 1 (Homo sapiens, UniProt Q13547). The experiment in a line: Inhibition of recombinant human HDAC1 using p53 (Ac-RHKK(Acetyl)-AMC) as substrate preincubated for 5 mins followed by substrate addition and measured after 90 mins by fluorescence based analysis.
Another data set has as its system HEK293. The experiment in a line: Cytotoxicity against HEK293 cells assessed as reduction in cell viability at 50 uM after 24 hrs by alamar blue assay. The class given is toxicity, cell-based. The note with it: human, hek293, 24 h.
Data set [3] deals with T4, Histone deacetylase 8 (Homo sapiens) (UniProt Q9BY41).
T4 sequence (whole entry): T2 sequence (Q9BY41 whole entry)
The experiment in a line: Inhibition of HDAC8 in human Jurkat T cells assessed as increase in H3K27 acetylation at 10 uM after 6 hrs by Western blot analysis. It is filed as cell-based.

Data set [4] has as its target T4, Histone deacetylase 8 (Homo sapiens). The experiment in a line: Inhibition of recombinant human HDAC8 at 1 uM using (Abz-SRGK(thio-TFA)FFRR-NH2) as substrate preincubated for 5 mins followed by substrate addition by fluorescence based analysis relative to control.
Data set [5] has as its target T3, Histone deacetylase 1. The experiment in a line: Inhibition of recombinant human HDAC1 at 1 uM using p53 (Ac-RHKK(Acetyl)-AMC) as substrate preincubated for 5 mins followed by substrate addition and measured after 90 mins by fluorescence based analysis relative to control. The note with it: time 95.0 min.
The target of data set [6] is T3, Histone deacetylase 1. The experiment in a line: Inhibition of recombinant human HDAC1 at 10 uM using p53 (Ac-RHKK(Acetyl)-AMC) as substrate preincubated for 5 mins followed by substrate addition and measured after 90 mins by fluorescence based analysis relative to control. Conditions: time 95.0 min.
The target in data set [7] is T4, Histone deacetylase 8 (Homo sapiens). The experiment in a line: Inhibition of recombinant human HDAC8 at 10 uM using (Abz-SRGK(thio-TFA)FFRR-NH2) as substrate preincubated for 5 mins followed by substrate addition by fluorescence based analysis relative to control.
The target of data set [8] is T1, Histone deacetylase 2. The experiment in a line: Inhibition of recombinant human HDAC2 at 1 uM using p53 (Ac-RHKK(Acetyl)-AMC) as substrate preincubated for 5 mins followed by substrate addition and measured after 30 mins by fluorescence based analysis relative to control. Conditions: time 35.0 min.
Data set [9] concerns the target T1, Histone deacetylase 2. The experiment in a line: Inhibition of recombinant human HDAC2 at 10 uM using p53 (Ac-RHKK(Acetyl)-AMC) as substrate preincubated for 5 mins followed by substrate addition and measured after 30 mins by fluorescence based analysis relative to control. The note with it: time 35.0 min.

T1 sequence (Q92769 whole entry): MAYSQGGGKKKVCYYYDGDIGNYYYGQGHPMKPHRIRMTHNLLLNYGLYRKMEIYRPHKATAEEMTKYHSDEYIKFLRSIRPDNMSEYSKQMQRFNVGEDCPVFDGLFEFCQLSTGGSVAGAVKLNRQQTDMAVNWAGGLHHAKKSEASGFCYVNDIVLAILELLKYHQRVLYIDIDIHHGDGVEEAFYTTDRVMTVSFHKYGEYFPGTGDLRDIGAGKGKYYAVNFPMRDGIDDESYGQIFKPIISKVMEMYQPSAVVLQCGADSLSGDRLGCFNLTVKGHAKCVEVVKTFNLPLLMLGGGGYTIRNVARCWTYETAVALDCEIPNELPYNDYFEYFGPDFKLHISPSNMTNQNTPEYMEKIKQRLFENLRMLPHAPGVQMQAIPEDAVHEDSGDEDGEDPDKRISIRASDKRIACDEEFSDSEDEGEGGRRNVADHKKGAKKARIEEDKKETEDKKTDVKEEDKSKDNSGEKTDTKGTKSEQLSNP
T3 sequence (Q13547 whole entry): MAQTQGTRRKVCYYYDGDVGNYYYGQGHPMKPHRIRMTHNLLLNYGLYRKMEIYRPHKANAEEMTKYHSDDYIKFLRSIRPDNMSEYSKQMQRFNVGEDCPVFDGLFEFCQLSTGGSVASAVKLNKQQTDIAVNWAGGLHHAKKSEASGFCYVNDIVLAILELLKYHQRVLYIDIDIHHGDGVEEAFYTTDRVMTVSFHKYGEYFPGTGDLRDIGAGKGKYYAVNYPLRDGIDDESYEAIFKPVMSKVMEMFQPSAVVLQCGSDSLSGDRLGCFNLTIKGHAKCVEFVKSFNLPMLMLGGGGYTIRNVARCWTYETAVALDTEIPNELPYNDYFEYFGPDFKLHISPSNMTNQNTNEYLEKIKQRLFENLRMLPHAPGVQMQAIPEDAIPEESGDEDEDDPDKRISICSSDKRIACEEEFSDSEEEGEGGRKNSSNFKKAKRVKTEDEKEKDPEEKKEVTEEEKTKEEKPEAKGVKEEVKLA
Chain of Histone deacetylase 3 (O15379 whole entry): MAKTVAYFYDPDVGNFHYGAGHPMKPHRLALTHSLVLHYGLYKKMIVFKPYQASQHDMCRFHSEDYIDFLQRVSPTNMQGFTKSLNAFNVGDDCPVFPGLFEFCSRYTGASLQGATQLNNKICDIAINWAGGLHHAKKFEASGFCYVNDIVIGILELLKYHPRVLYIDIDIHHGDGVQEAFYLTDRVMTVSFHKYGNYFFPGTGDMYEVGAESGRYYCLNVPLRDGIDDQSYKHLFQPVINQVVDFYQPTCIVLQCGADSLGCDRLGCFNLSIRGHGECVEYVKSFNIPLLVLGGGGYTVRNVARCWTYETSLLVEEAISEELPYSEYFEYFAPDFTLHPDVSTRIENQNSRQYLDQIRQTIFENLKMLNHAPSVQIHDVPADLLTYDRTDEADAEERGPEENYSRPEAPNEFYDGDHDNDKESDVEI

One may read the IC50 as the concentration at which inhibition is half-maximal. Consider `CCCCNNC(=O)c1ccc(-c2ccc(CNC(C)=O)cc2)cc1`, for which the IC50 at Histone deacetylase 2 [1] turned out to be 1100 nM; at Histone deacetylase 3, 350 nM; at Histone deacetylase 8 it was 360 nM; at Histone deacetylase 1 [2], 620 nM. Also, the Cell viability in the data set on HEK293 is on record as 80.1%.

Broadly, the inhibition is the drop in the measured response relative to a control, in per cent. In the case of `CCCCCCNNC(=O)c1cnc(N2CCN(CCc3cn(C)c4ccccc34)CC2)nc1`, the IC50 at Histone deacetylase 2 [1] is 1200 nM; on Histone deacetylase 3, 1400 nM; at Histone deacetylase 8, 23 nM; on Histone deacetylase 1 [2], 400 nM. For the same molecule, the inhibition result in data set [3] is “Active”. Also, the Cell viability in the data set with HEK293 is 31.8%.

As to `CCCCCCNNC(=O)c1ccc(CNC(C)=O)cc1`, the half-inhibitory concentration (IC50) at Histone deacetylase 2 [1] was 12000 nM; at Histone deacetylase 3, above 20000 nM; at Histone deacetylase 8 it was 23 nM; on Histone deacetylase 1 [2], 48000 nM. In the data set with HEK293, the Cell viability was found to be 113.3%.

`CCCNNC(=O)c1cnc(NCc2cc(Cl)ccc2Cl)nc1`: the inhibition in data set [4] was 33%; on Histone deacetylase 1 [5], 66%; on Histone deacetylase 1 [6], 88%; in data set [7], 83%. On Histone deacetylase 3, the IC50 turned out to be 58 nM. For the same molecule, the Cell viability in the data set with HEK293 worked out at 78.2%.

With `CCCNNC(=O)c1cnc(NCc2ccc(CNC(C)=O)cc2)nc1`, the results for the IC50 at Histone deacetylase 2 [1], at Histone deacetylase 3 and at Histone deacetylase 1 [2] were 920 nM, 110 nM and 290 nM, respectively. The inhibition result in data set [3] was “Active”. For the same molecule, the Cell viability in the data set on HEK293 is reported as 93.1%.

As for `CCCCCCNNC(=O)c1cnc(N2CCN(CCc3c[nH]c4ccccc34)CC2)nc1`, the IC50 was 1400 nM at Histone deacetylase 2 [1], 1000 nM on Histone deacetylase 3, 13 nM at Histone deacetylase 8 and 860 nM on Histone deacetylase 1 [2]. The Cell viability in the data set with HEK293 is recorded as 47.1%.

Consider `CCCNNC(=O)c1cnc(N2CCN(C)CC2)nc1`, for which the IC50 at Histone deacetylase 2 [1] was 2400 nM; on Histone deacetylase 3, 120 nM; on Histone deacetylase 8 it was 250 nM; at Histone deacetylase 1 [2], 590 nM. Moreover, in the data set on HEK293, the Cell viability was 93.6%.

Regarding `CCCCCCNNC(=O)c1cnc(NCc2ccc(CNC(C)=O)cc2)nc1`, the IC50 at Histone deacetylase 2 [1] turned out to be 4500 nM; on Histone deacetylase 3, 8500 nM; on Histone deacetylase 8, 19 nM; at Histone deacetylase 1 [2] it was 960 nM. Moreover, the inhibition entry in [3] is “Active”. For the same molecule, in the data set with HEK293, the Cell viability is given as 79.4%.

For the molecule `CCCNNC(=O)c1cnc(NCc2ccccc2Cl)nc1`, the inhibition was found to be 55% at Histone deacetylase 2 [8]; 43% in data set [4]; 92% on Histone deacetylase 2 [9]; 71% on Histone deacetylase 1 [5]; 89% on Histone deacetylase 1 [6]; 87% in [7]. Also, the IC50 on Histone deacetylase 3 stood at 60 nM. Moreover, the Cell viability in the data set with HEK293 is listed as 80.7%.

For the molecule `CCCCCCNNC(=O)c1cnc(N2CCN(Cc3cn(C)c4ccccc34)CC2)nc1`, the IC50 on Histone deacetylase 2 [1] is 330 nM; on Histone deacetylase 3, 300 nM; on Histone deacetylase 8, 14 nM; on Histone deacetylase 1 [2], 170 nM. The inhibition result in data set [3] was “Active”. Further, in the data set with HEK293, the Cell viability came out at 1.6%.

In the case of `CCCCCCNNC(=O)c1cnc(NCc2ccccc2)nc1`, the IC50 on Histone deacetylase 2 [1] is 3200 nM; at Histone deacetylase 3, 3000 nM; at Histone deacetylase 8 it was 16 nM; at Histone deacetylase 1 [2], 560 nM. In addition, the Cell viability with HEK293 worked out at 88.4%.

With `CCCCCCNNC(=O)c1cnc(NCCc2ccccc2)nc1`, the IC50 on Histone deacetylase 2 [1] was determined as 12000 nM; on Histone deacetylase 3, 7200 nM; at Histone deacetylase 8 it was 28 nM; at Histone deacetylase 1 [2] it was 2200 nM. In addition, the inhibition entry in data set [3] was “Active”. The Cell viability in the data set with HEK293 is recorded as 90.1%.

Consider `CCCCCCNNC(=O)c1cnc(NCc2cccc3ccccc23)nc1`, for which the IC50 is above 20000 nM on Histone deacetylase 2 [1], above 20000 nM on Histone deacetylase 3, 63 nM on Histone deacetylase 8 and 8300 nM at Histone deacetylase 1 [2]. Besides, the inhibition entry in data set [3] was “Active”. Besides, the Cell viability in the data set on HEK293 is given as 65.7%.

As to `CCCNNC(=O)c1cnc(NCc2ccc(Cl)cc2)nc1`, the inhibition at Histone deacetylase 2 [8] worked out at 61%; in data set [4], 62%; at Histone deacetylase 2 [9], 96%; on Histone deacetylase 1 [5], 54%; at Histone deacetylase 1 [6], 92%; in data set [7], 88%. Moreover, the IC50 at Histone deacetylase 3 worked out at 37 nM. For the same molecule, in the data set with HEK293, the Cell viability worked out at 83.2%.

Regarding `CCCNNC(=O)c1cnc(NCc2cccc3ccccc23)nc1`, the inhibition stood at 46% on Histone deacetylase 2 [8]; 36% in [4]; 93% at Histone deacetylase 2 [9]; 53% on Histone deacetylase 1 [5]; 91% on Histone deacetylase 1 [6]; 83% in data set [7]. The IC50 on Histone deacetylase 3 was 81 nM. The Cell viability in the data set with HEK293 is listed as 78.9%.

As for `CCCCCNNC(=O)c1ccc(-c2ccc(CNC(C)=O)cc2)cc1`, the IC50 on Histone deacetylase 2 [1] turned out to be 2000 nM; on Histone deacetylase 3, 1500 nM; at Histone deacetylase 8, 350 nM; at Histone deacetylase 1 [2], 660 nM. Further, the Cell viability with HEK293 amounted to 90.8%.

Regarding `CCCCNNC(=O)c1cnc(NCc2ccccc2)nc1`, the inhibition at Histone deacetylase 2 [8] stood at 46%; in data set [4] it was 66%; at Histone deacetylase 2 [9], 93%; on Histone deacetylase 1 [5], 61%; at Histone deacetylase 1 [6], 85%; in [7], 94%. In addition, the IC50 at Histone deacetylase 3 worked out at 200 nM. For the same molecule, the Cell viability in the data set with HEK293 is reported as 88.9%.

In the case of `CCCNNC(=O)c1ccc(CNC(C)=O)cc1`, the figures for the IC50 on Histone deacetylase 2 [1], on Histone deacetylase 3 and at Histone deacetylase 1 [2] were 5500 nM, 1600 nM and 1600 nM, respectively. Besides, the Cell viability in the data set on HEK293 is listed as 81.2%.
